Test [1] concerns the target S-adenosylmethionine decarboxylase proenzyme (Escherichia coli) (UniProt P0A7F6). Kind of test: Compound was evaluated for its inhibitory activity against AdoMet-DC from Escherichia coli.
A short description of test [2]: Compound was evaluated to inactivate the bacterial AdoMet-DC.

Where a name gives a salt, the structure may show the parent alone.

S-adenosylmethionine decarboxylase proenzyme (Escherichia coli), sequence (P0A7F6 whole entry, looked up): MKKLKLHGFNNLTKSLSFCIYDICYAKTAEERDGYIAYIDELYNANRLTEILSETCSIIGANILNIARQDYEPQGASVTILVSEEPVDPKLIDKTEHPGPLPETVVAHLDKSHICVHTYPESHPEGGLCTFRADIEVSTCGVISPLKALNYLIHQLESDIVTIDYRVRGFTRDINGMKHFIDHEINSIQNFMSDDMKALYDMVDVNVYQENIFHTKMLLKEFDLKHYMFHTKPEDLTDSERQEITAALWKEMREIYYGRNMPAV

With `N#CC(N)CCCSC[C@H]1O[C@@H](n2cnc3c(N)ncnc32)[C@H](O)[C@@H]1O` (stereo not given in full), the IC50 (usually the concentration at which inhibition is half-maximal) in test [1] stood at 205 µM.

As for `C[S+](CCC(N)C#N)C[C@H]1O[C@@H](n2cnc3c(N)ncnc32)[C@H](O)[C@@H]1O` (stereo partly drawn) [2-amino-4-({[(2S,3S,4R)-5-(6-amino-9H-purin-9-yl)-3,4-dihydroxyoxolan-2-yl]methyl}(methyl)-sulfanyl)butanenitrile dihydrobromide], the Ki in test [2] turned out to be 31.1 µM. The compound also yielded an IC50 in test [1] of 9 µM.

Compound `N#CC(N)CCSC[C@H]1O[C@@H](n2cnc3c(N)ncnc32)[C@H](O)[C@@H]1O` (stereo not given in full) had an IC50 in test [1] of 179 µM.

In test [1], `C[S+](CCCC(N)C#N)C[C@H]1O[C@@H](n2cnc3c(N)ncnc32)[C@H](O)[C@@H]1O` (stereo partly drawn) [2-amino-5-({[(2S,3S,4R)-5-(6-amino-9H-purin-9-yl)-3,4-dihydroxyoxolan-2-yl]methyl}(methyl)-sulfanyl)pentanenitrile dihydrobromide] registered an IC50 of 50 µM.

Values taken from BindingDB's records for doi:10.1016/S0960-894X(01)80770-8 (1993).
